The text below walks through data of patent publication US12648957B2, “Compositions and methods for the treatment of SWI-SNF mutant tumors” (The Children's Hospital of Philadelphia, priority 2019, dated 2026).

Data set [1] has as its system G401 rhabdoid tumor xenografts. Nature of the data set: Intramuscular G401 rhabdoid tumor xenograft model. The settings on record: for median survival: vehicle 28-days.
Description: Xenograft Experiments. 5×10^6 G401-luc cells were injected intramuscularly into the gastrocnemius of 8 to 10-week-old female homozygous nude mice (Crl; Nu-Foxn1^Nu). […] Pumps were implanted intraperitoneally and removed with 7-days after end of drug delivery. […] Investigators were not blinded to the treatment groups.
Bioluminescence Imaging. Mice were administered Firefly D-Luciferin (GoldBio, 1.5 mg/mouse) with intraperitoneal injections. After injection anesthesia was administered throughout the image acquisition (3% isoflurane at 1 L/min 02 flow). Bioluminescent images were taken 10 minutes after injection using the AMI-1000 imaging system.
Tissue Staining and Immunohistochemistry. Tissues were decalcified in 10% EDTA (pH 8.0) for 7-days prior to paraffin embedding. Paraffin embedded tissue was sectioned into 5-micrometer sections and mounted on colormark plus charged slides. Hematoxylin and Eosin staining was performed on the Ventana Symphony instrument. For immunohistochemistry, antigen retrieval was performed on the PT Link platform on the Dako Autostainer Plus instrument. Following blocking, tissue was incubated with H3K27me3 antibody (Abcam 1:250) or Cleaved Caspase-3 (Cell Signaling Antibody 1:250), washed and then secondary antibody (Envision+System HRP labelled polymer Anti-Rabbit, Dako 1:100) and finished with Dako Liquid DAB+Substrate Chromogen System.
Data set [2] deals with BT12 and G401 rhabdoid tumor cells. Nature of the data set: Dose response curves in BT12 and G401 cells. Format: cell-based. Particulars: for sensitivity of rhabdoid tumor cells (dose response curve): BT12 and G401. As for the experimental part: (§1) Cell Culture. BT12 and CHLA266 cell lines were obtained from the Children's Oncology Group. G401 cell line was obtained from ATCC. TC32 cells were obtained from Dr. Lee Helman (Children's Hospital of Los Angeles). U2OS cells were obtained from Dr. Chand Khanna (Ethos Veterinary Health LLC). All cell lines were grown in RPMI-1640 medium (Invitrogen) supplemented with 10% fetal bovine serum (Gemini Bio-Products), 2 mM L-glutamine (Invitrogen), 100 U/mL penicillin and 100 μg/mL streptomycin (Invitrogen). Cell lines were maintained at less than 80% confluency at 37° C. and 5% CO2 and confirmed to be mycoplasma negative every 6-months.
(§2) Cell Proliferation Assays. IC50s were calculated with non-linear regression (Graphpad Prism) as the average of three independent experiments performed in duplicate. Cell viability was measured using MTS assay CellTiter96 (Promega) plotted against a standard curve and was confirmed with real-time proliferation assays on the Incucyte Zoom, as previously described (Harlow et al., 2019).

The test system is the same in data set [3]. Description: Live cell imaging proliferation and phenotype (Incucyte Zoom). Format: cell-based. The settings on record: BT12, EC-8042 200 nM compared with mithramycin 100 nM. Here is the method: as §2
For data set [4] the following is noted: multiple species; cited from earlier work.
The subject of data set [5] is rhabdoid tumor cell lines (BT12 AT/RT, CHLA266 AT/RT, and G401 RTK). Nature of the data set: Cell proliferation assay (MTS CellTiter96), rhabdoid tumor vs Ewing sarcoma cells. Type of data set: cell-based. Particulars: three rhabdoid tumor cell lines vs Ewing sarcoma cells, FIG. 1C. Here is the method: as §1, §2
In the next data set the test system is SP1. Nature of the data set: SP1 expression by quantitative PCR and western blot. Particulars: BT12 and G401 cells, tolfenamic acid concentrations of FIG. 3G.
Where [6] appears, read: EC-8042 3-day pump, day 4, vs vehicle.

Description for SP1: RNA was subsequently collected using the RNeasy kit and quantified. The RNA was reverse transcribed with the high capacity reverse transcriptase kit (Life Technologies) at 25° C. for 10 minutes, 37° C. for 120 minutes, and 85° C. for 5 minutes. 100 ng cDNA was PCR amplified with 2×SYBR green at 95° C. for 10 min, 95° C. for 15 s, 55° C. for 15s, and 72° C. for 1 min, for 40 cycles. Expression from three independent experiments performed in duplicate was calculated with standard ddCT methods relative to GAPDH and solvent controls.
Cellular fractionation was performed to separate cytoplasmic and nuclear fractions. Fractionation lysates were lysed with cytoplasmic lysis buffer (25 mM HEPES pH 8.0, 50 mM KCl, and 05% NP-40) supplemented with RNAse (Thermo Fisher Scientific) and protease inhibitors (Sigma-Aldrich) for 15-minutes on ice vortexing every 5-minutes. The nuclei were pelleted at 1500× g for 5 minutes and the cytoplasmic fraction was isolated. The nuclei pellet was lysed with 4% LDS lysis buffer. Following dilution of detergent, protein was quantified with the BCA colorimetric assay (Thermo-Scientific). […] Transfer was run at 20 V and 4° C. overnight. The membranes were blocked with 5% milk in TBS-T (1×TBS, 0.1% Tween-20) and probed with Abcam (H3K27me3), EMD Millipore (SP1), and Cell Signaling (SMARCC1, SMARCE1, H3) antibodies.

With `CO[C@@H]([C@@H]1Cc2cc3cc(O[C@H]4CC(O[C@H]5CC(O)[C@H](O)C(C)O5)[C@H](O)C(C)O4)c(C)c(O)c3c(O)c2C(=O)[C@H]1O[C@H]1CC(O[C@H]2CC(O[C@H]3CC(O)[C@H](O)C(C)O3)[C@@H](O)C(C)O2)[C@H](O)C(C)O1)[C@@H](O)C(C)=O` (stereo partly drawn) [EC-8042, demycarosyl-3D-β-D-ditioxosyl-mithramycin SK], in data set [1] (EC-8042 3-day and 7-day pump, resolved with cessation of drug infusion), the body weight result was “minimal transient weight loss”. In data set [1] (EC-8042 3-day or 7-day pump), the “differentiation in xenograft tumors (H&E)” value is reported as “striking evidence of mesenchymal differentiation”. In addition, the median survival in data set [1] (EC-8042 3-day pump (30 mg/kg)) was 68 days. The “mice with complete cures” value in data set [1] (EC-8042 3-day pump cohort) is “Three”. For the same compound, in data set [1] (setting [6]), the “H3K27ac staining (IHC)” value is recorded as “decrease”, the “H3K27me3 staining (IHC)” value is reported as “significantly increase in positive staining”, the “cleaved caspase 3 (CC3) staining (IHC)” value was “significantly increase in positive staining” and the “human mitochondrial staining (IHC)” value is given as “decrease”. In addition, in data set [1] (EC-8042 7-day pump (50 mg/kg)), the median survival is given as 70 days. Moreover, the “calcification of tumor tissue (micro-CT)” value in data set [1] (EC-8042, 7-days after treatment, compared with vehicle) was “enhances the calcification and mineralization”. In data set [1] (EC-8042, most mice), the “duration of response post end of infusion” value is reported as around 6 weeks. For the same compound, in data set [1] (EC-8042, several mice), the “time after treatment without tumor recurrence in cured mice” value was determined as 140 days. In data set [1] (EC-8042, subset of mice, end of infusion), the “bioluminescent imaging of tumor” value is given as “almost no detectable tumor”. Besides, the “time to tumor recurrence after treatment end” value in data set [1] (EC-8042 continuous infusion) was “approximately 40 days”. Also, the tumor response entry in data set [1] (EC-8042 continuous infusion, 3-days (30 mg/kg) or 7-days (50 mg/kg), all mice in both cohorts) is “striking regressions”. The “sensitivity of rhabdoid tumor cells (dose response curve)” value in data set [2] is listed as “sensitive”. Further, the “concentration at which rhabdoid tumor is sensitive, relative to mithramycin” value in data set [2] (in vitro, FIGS. S5A-B) is listed as “slightly higher concentration as mithramycin”. Besides, the cell phenotype result in data set [3] is “lipid accumulation and a flattened cell phenotype”. The “toxicity relative to mithramycin” value in data set [4] is “more than 10 times”.

With `COc1cc([C@@H]2c3cc4c(cc3[C@@H](O[C@@H]3O[C@@H]5CO[C@@H](C)O[C@H]5[C@H](O)[C@H]3O)[C@H]3COC(=O)[C@H]23)OCO4)cc(OC)c1O` [etoposide], the “fold less sensitive than Ewing sarcoma cells” value in data set [5] was 70 fold.

With `Cc1c(Cl)cccc1Nc1ccccc1C(=O)O` [tolfenamic acid, reference compound], the “SP1 expression (western blot)” value in the data set on SP1 was “loss of SP1 expression”. Also, the “sensitivity of rhabdoid tumor cells (dose response curve)” value in data set [2] is given as “not sensitive”.

In the case of `CCc1c2c(nc3ccc(O)cc13)-c1cc3c(c(=O)n1C2)COC(=O)[C@]3(O)CC` [SN38], the “fold less sensitive than Ewing sarcoma cells” value in data set [5] is recorded as 100 fold.

Take `COc1cccc2c1C(=O)c1c(O)c3c(c(O)c1C2=O)C[C@@](O)(C(=O)CO)C[C@@H]3O[C@H]1C[C@H](N)[C@H](O)[C@H](C)O1` [doxorubicin]: in data set [5], the “fold less sensitive than Ewing sarcoma cells” value is 4 fold.
